This note sets out measurements from patent publication US10774092B2 (SALK INSTITUTE FOR BIOLOGICAL STUDIES, priority 2014, dated 2020).

Structures are written as SMILES.

By IC50 is commonly meant the concentration at which inhibition is half-maximal.

This experiment has as its target ULK1. Description: ULK1 inhibition assay (Table 1). In kind it is biochemical. To be noted: * = tested as a mixture of regioisomers.
With `c1cc(NC2CC2)nc(Nc2ccc3c(c2)OCCO3)n1` [Example 224, N4-cyclopropyl-N2-(2,3-dihydrobenzo[b][1,4]dioxin-6-yl)pyrimidine-2,4-diamine], the IC50 was greater than 2000 nM.
As for `O=C1CCc2cc(Nc3ncc(C(F)(F)F)c(OC4COC4)n3)ccc2N1` [Example 231a, 6-((4-(oxetan-3-yloxy)-5-(trifluoromethyl)pyrimidin-2-yl)amino)-3,4-dihydroquinolin-2(1H)-one], the figure is less than 200 nM.
The figure for `O=C1CCc2cc(Nc3ncc(C(F)(F)F)c(O)n3)ccc2N1` [Example 231b, 6-((4-hydroxy-5-(trifluoromethyl)pyrimidin-2-yl)amino)-3,4-dihydroquinolin-2(1H)-one] is greater than 2000 nM.
As for `O=c1[nH]c2ccc(Nc3nccc(NC4CC4)n3)cc2[nH]1` [Example 232, 5-((4-(cyclopropylamino)pyrimidin-2-yl)amino)-1,3-dihydro-2H-benzo[d]imidazol-2-one], the figure is greater than 2000 nM; as for `O=c1[nH]c2ccc(Nc3ncc(Br)c(Nc4ccc5[nH]c(=O)[nH]c5c4)n3)cc2[nH]1` [Example 233, 5,5′-((5-bromopyrimidine-2,4-diyl)bis(azanediyl))bis(1,3-dihydro-2H-benzoimidazol-2-one)], less than 200 nM.
Regarding `COc1cc(Nc2ncc(Cl)c(N(C)C(=O)c3ccccc3O)n2)cc(OC)c1OC` [Example 234b, N-(5-chloro-2-((3,4,5-trimethoxyphenyl)amino)pyrimidin-4-yl)-2-hydroxy-N-methylbenzamide], the half-maximal inhibitory concentration (IC50) was 200 to 2000 nM.
The figure for `O=C1Cc2cc(Nc3ncc(C(F)(F)F)c(NC4CC4)n3)ccc2N1` [Example 240, 5-((4-(cyclopropylamino)-5-(trifluoromethyl)pyrimidin-2-yl)amino)indolin-2-one] is less than 200 nM; for `CNC(=O)c1cccc(Oc2nc(Nc3cc(OC)c(OC)c(OC)c3)ncc2Br)c1` [Example 242, 3-((5-bromo-2-((3,4,5-trimethoxyphenyl)amino)pyrimidin-4-yl)oxy)-N-methylbenzamide] it is 200 to 2000 nM.
The figure for `COc1cc(Nc2ncc(Br)c(Oc3ccccc3C(=O)N(C)C)n2)cc(OC)c1OC` [Example 245, 2-((5-bromo-2-((3,4,5-trimethoxyphenyl)amino)pyrimidin-4-yl)oxy)-N,N-dimethylbenzamide] is less than 200 nM; for `COc1cc(Nc2ncc(Br)c(Oc3ccccc3C(N)=O)n2)cc(OC)c1OC` [Example 249, 2-((5-bromo-2-((3,4,5-trimethoxyphenyl)amino)pyrimidin-4-yl)oxy)benzamide] it is less than 200 nM; for `CNC(=O)c1cccc(OC)c1Oc1nc(Nc2cc(OC)c(OC)c(OC)c2)ncc1Br` [Example 252, 2-((5-bromo-2-((3,4,5-trimethoxyphenyl)amino)pyrimidin-4-yl)oxy)-3-methoxy-N-methylbenzamide] it is less than 200 nM.
As for `COc1cc(Nc2ncc(Br)c(Oc3ccccc3NC(C)=O)n2)cc(OC)c1OC` [Example 254a, N-(2-((5-bromo-2-((3,4,5-trimethoxyphenyl)amino)pyrimidin-4-yl)oxy)phenyl)acetamide], the figure is less than 200 nM; as for `COc1cc(Nc2ncc(Br)c(Oc3ccccc3N)n2)cc(OC)c1OC` [Example 254b, 4-(2-aminophenoxy)-5-bromo-N-(3,4,5-trimethoxyphenyl)pyrimidin-2-amine], less than 200 nM; as for `CNC(=O)c1c(O)cccc1Oc1nc(Nc2cc(OC)c(OC)c(OC)c2)ncc1Br` [Example 257, 2-((5-bromo-2-((3,4,5-trimethoxyphenyl)amino)pyrimidin-4-yl)oxy)-6-hydroxy-N-methylbenzamide], less than 200 nM.
For `O=C1CCc2cc(Nc3ncc(C(F)(F)F)c(OCCNC(=O)OCc4ccccc4)n3)ccc2N1` [Example 261, Benzyl (2-((2-((2-oxo-1,2,3,4-tetrahydroquinolin-6-yl)amino)-5-(trifluoromethyl)pyrimidin-4-yl)oxy)ethyl)carbamate], the IC50 is greater than 2000 nM.
